The results in this text go back to publication PMC13369845 (Oncogenesis, 2026).

Data set [1] in a line: In vitro plasma stability. Format: in vitro ADME, mouse (C57BL/6). Particulars: LC-MS/MS. On the procedure:
Each aliquot (50 µl) was mixed with 150 µl methanol, vortexed, spun, removed the supernatant and reconstituted the pellet with 150 µl 10% formic acid in water. The sample was vortexed and spun, and a 100 µl aliquot was taken, diluted 1:1 with 10 mM ammonium bicarbonate, and analyzed by LC-MS/MS. Using the remaining vs. time dataset, we performed a first-order decay analysis by fitting a linear regression to the natural log-transformed percent remaining values (excluding 0% and t = 0 anchor point) to plot the graph.

A short description of data set [2]: In vivo plasma pharmacokinetics. The arrangement: species or system mouse (C57BL/6). The following applies: male C57BL/6 mouse, 5 mg/kg intraperitoneal, LC-MS/MS. How it is done:
Blood samples (100 µl) were obtained at 0, 0.25, 0.5, 1, 2, 4, 8, and 24 h via tail vein bleeds.

In data set [3] the test system is B16F10-derived tumors in C57BL/6 mice. Briefly: B16F10 melanoma mouse tumor model. Format: in vivo. The following applies: CST 10 mg/kg intraperitoneally, three times per week. How it is done: Age-matched male and female C57BL/6 mice (7–9 weeks, n = 9) were subcutaneously injected with 5 × 10⁴ B16-F10 cells in 100 µL PBS. […] Tumor dimensions were measured with calipers, and volume was calculated using the formula V = (length × width²)/2. Mice were euthanized 22 days post-inoculation by inhalational isoflurane, that follow the institutional IACUC protocol and AVMA guideline for Euthanasia of animals (2020). […] Animals were continuously monitored till the loss of righting reflex and response to toe pinch was absent, thus confirming a surgical plane of anesthesia. Tissues were collected when the animals went into deep anesthesia and euthanasia was finally completely by exsanguination. […]
Fixed tumors were paraffin-embedded and sectioned (5 µm). […] The area fraction was calculated as the percentage of pixels that exceeded the threshold within the defined region of interest (ROI). Quantification was performed using Fiji (ImageJ), which computes the area fraction as the ratio of the threshold-positive area to the total ROI area, expressed as a percentage.
Apoptotic nuclei were detected in tumor sections using the CF®594 TUNEL Assay Kit (Biotium #30064). […] Fluorescence images were obtained using a Keyence microscope.
For tissue lysates from wild-type and CST-knockout (CST-KO) mice, 10 µg of total protein was analyzed by immunoblotting using an anti-CST antibody. […]

In data set [4] the test system is Vemurafenib-resistant A375 cells. Put plainly: Cell viability (CCK-8) of Vemurafenib-resistant A375 cells. Format: cell-based, human. How it is done:
Viability was determined using the CCK-8 reagent (APExBIO-K1018). Absorbance was measured at 450 nm using a Varioskan LUX reader.
Vemurafenib-resistant A375 cells were generated following established protocol. Parental cells were treated with 100 nM Vemurafenib (SelleckChem #S1267) for 2 weeks, followed by stepwise doubling of drug concentration every 2 weeks up to 3.2 µM. Surviving cells in maintenance culture containing 2 µM drug were used for downstream studies.

Where no end group is shown, it is not given here. A value given as a limit tells only on which side of the number the result lay.

For the compound SSMKLSFRARAYGFRGPGPQL [CST, Catestatin], the intact material remaining in data set [1] (in vitro mouse plasma, 5 µg CST/ml, at ~5.6 h) is ~ 50%. Besides, in data set [1] (in vitro, C57BL/6 mouse plasma spiked with 5 µg CST/ml, aliquots over 24 h, linear regression of ln(% remaining) vs time, R^2 = 0.971), the “apparent first-order rate constant k” value was determined as 0.1246 h⁻¹. In addition, the Cmax in data set [2] (ip, plasma from tail vein bleeds 0-24 h, read-out: Cmax (maximum concentration)) was 160 ng/mL. In addition, in data set [2] (plasma), the “Tmax (time to reach Cmax)” value was 15 min and the “t1/2 (half-life) in vivo” value was determined as 89.4 min. Moreover, the “body weight and liver histology” value in data set [3] is listed as “No major changes in body weight or liver histology”.
Turning to `CCCS(=O)(=O)Nc1ccc(F)c(C(=O)c2c[nH]c3ncc(-c4ccc(Cl)cc4)cc23)c1F` [Vemurafenib], the “cell viability of A375 resistant cells, single agents and combination” value in data set [4] (Vemurafenib 2 µM, CST 2 µM, alone or combined, after 48 h) is listed as “little effect on cell viability”. Moreover, the “IC50 of resistant cells relative to parental cells” value in data set [4] (Vemurafenib-resistant vs parental A375) is recorded as more than 6 fold.
